pEC50: −log10 of the molar value.
How the values were obtained:
[1] = tested on: Wnt activity (Sp5-Luc reporter, TCF/LEF binding sites) in SW480 colon carcinoma cells; assay: Screening assay for Wnt activity: Sp5-Luc reporter gene assay in stably transduced SW480 colon carcinoma cells; assay type: cell-based; conditions: Homo sapiens; for pEC50: overnight incubation, 10-point curve from 10 μM
How it was run: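 SW480 cells stably transduced with a luciferase reporter driven by an Sp5 promoter of eight TCF/LEF sites were plated at 4,000 cells/well in 1% FBS medium. They were exposed overnight at 37° C to a 10-point 1:3 dilution series from 10 μM (0.1% DMSO). Luminescence was normalized to DMSO for four-parameter EC50, or percent inhibition at 10 μM.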

IL-6 = assay: Inhibition of IL-6 in LPS-stimulated THP-1 human monocyte cells (HTRF); assay type: cell-based; conditions: for pEC50: IL-6 inhibition, LPS-stimulated THP-1 cells, HTRF; for inhibition at 10 µM: THP-1, printed beside >10 μM EC50, top concentration 10 μM, meaning not given, read-out: percentage in parentheses after EC50 >10
How it was run: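 THP-1 cells serum-reduced (1% FBS, 24 h), then 5000 cells/well preincubated 2 h with compound (10-point 1:3 series from 10 μM, 0.1% DMSO) before 500 ng/mL LPS for 22 h at 37 °C. Secreted IL-6 quantified by HTRF 665/620 ratio; DMSO-normalised duplicates fitted to four-parameter EC50; above 10 μM, % inhibition at 10 μM given.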

pEC50 [1] | pEC50 (IL-6) | SMILES | inhibition at 10 µM (IL-6) | inhibition at 10 µM ([1]; at 10 μM, given where EC50 >10 μM, read-out: percent inhibition at 10 μM)
6.22 | < 5.00 | CCCC(=O)Nc1cncc(-c2ccc3[nH]nc(-c4cc5c(-c6ccncc6)cccc5[nH]4)c3c2)c1 [Compound 129, N-(5-(3-(4-(Pyridin-4-yl)-1H-indol-2-yl)-1H-indazol-5-yl)pyridin-3-yl) butyramide] | 33.4% | 
< 5.00 | < 5.00 | c1cc(-c2ccncc2)c2cc(-c3n[nH]c4ccc(-c5ccncc5)cc34)[nH]c2c1 [Compound 130, 5-(Pyridin-4-yl)-3-(4-(pyridin-4-yl)-1H-indol-2-yl)-1H-indazole] | 48.8% | 52.8%
6.87 | 6.96 | O=C(Nc1cncc(-c2ccc3[nH]nc(-c4cc5c(-c6ccncc6)cccc5[nH]4)c3c2)c1)C1CC1 [Compound 132, N-(5-(3-(4-(Pyridin-4-yl)-1H-indol-2-yl)-1H-indazol-5-yl)pyridin-3-yl) cyclopropanecarboxamide] |  | 
5.36 | 5.00 | O=C(Nc1cncc(-c2ccc3[nH]nc(-c4cc5c(-c6ccncc6)cccc5[nH]4)c3c2)c1)C1CCCCC1 [Compound 135, N-(5-(3-(4-(Pyridin-4-yl)-1H-indol-2-yl)-1H-indazol-5-yl)pyridin-3-yl) cyclohexanecarboxamide] |  | 
5.45 | 6.87 | c1ccc(-c2ccc3[nH]nc(-c4cc5c(-c6ccncc6)cccc5[nH]4)c3c2)nc1 [Compound 140, 5-(Pyridin-2-yl)-3-(4-(pyridin-4-yl)-1H-indol-2-yl)-1H-indazole] |  | 
7.22 | 6.54 | Nc1cncc(-c2ccc3[nH]nc(-c4cc5c(-c6ccccn6)cccc5[nH]4)c3c2)c1 [Compound 143, 5-(3-(4-(Pyridin-2-yl)-1H-indol-2-yl)-1H-indazol-5-yl)pyridin-3-amine] |  | 
5.72 | 5.32 | Cc1ccncc1-c1ccc2[nH]nc(-c3cc4c(-c5ccccn5)cccc4[nH]3)c2c1 [Compound 145, 5-(4-Methylpyridin-3-yl)-3-(4-(pyridin-2-yl)-1H-indol-2-yl)-1H-indazole] |  | 
6.82 | < 5.00 | O=C(Nc1cncc(-c2ccc3[nH]nc(-c4cc5c(-c6ccccn6)cccc5[nH]4)c3c2)c1)c1ccccc1 [Compound 151, N-(5-(3-(4-(Pyridin-2-yl)-1H-indol-2-yl)-1H-indazol-5-yl)pyridin-3-yl) benzamide] | 46.9% | 
6.31 | 6.12 | c1ccc(-c2cccc3[nH]c(-c4n[nH]c5ccc(-c6cncc(CN7CCCC7)c6)cc45)cc23)nc1 [Compound 154, 3-(4-(Pyridin-2-yl)-1H-indol-2-yl)-5-(5-(pyrrolidin-1-ylmethyl)pyridin-3-yl)-1H-indazole] |  | 
5.39 | 5.80 | c1ccc(-c2cccc3[nH]c(-c4n[nH]c5ccc(-c6ccncc6)cc45)cc23)nc1 [Compound 158, 3-(4-(Pyridin-2-yl)-1H-indol-2-yl)-5-(pyridin-4-yl)-1H-indazole] |  | 
5.78 | < 5.00 | CCCCC(=O)Nc1cncc(-c2ccc3[nH]nc(-c4cc5c(-c6ccccn6)cccc5[nH]4)c3c2)c1 [Compound 159, N-(5-(3-(4-(Pyridin-2-yl)-1H-indol-2-yl)-1H-indazol-5-yl)pyridin-3-yl) pentanamide] | 39.3% | 
5.91 | 6.01 | c1ccc(-c2cccc3[nH]c(-c4n[nH]c5ccc(-c6cncnc6)cc45)cc23)nc1 [Compound 167, 3-(4-(Pyridin-2-yl)-1H-indol-2-yl)-5-(pyrimidin-5-yl)-1H-indazole] |  | 
5.85 | < 5.00 | CCC(=O)Nc1cncc(-c2ccc3[nH]nc(-c4cc5c(N6CCCCC6)cccc5[nH]4)c3c2)c1 [Compound 169, N-(5-(3-(4-(Piperidin-1-yl)-1H-indol-2-yl)-1H-indazol-5-yl)pyridin-3-yl) propionamide] | 41.7% | 
6.24 | < 5.00 | CN(C)Cc1cncc(-c2ccc3[nH]nc(-c4cc5c(N6CCCCC6)cccc5[nH]4)c3c2)c1 [Compound 181, N,N-Dimethyl-1-(5-(3-(4-(piperidin-1-yl)-1H-indol-2-yl)-1H-indazol-5-yl)pyridin-3-yl)methanamine] | 40.7% | 
6.71 | 5.27 | O=C(Nc1cncc(-c2ccc3[nH]nc(-c4cc5c(N6CCCCC6)cccc5[nH]4)c3c2)c1)C1CC1 [Compound 188, N-(5-(3-(4-(Piperidin-1-yl)-1H-indol-2-yl)-1H-indazol-5-yl)pyridin-3-yl) cyclopropanecarboxamide] |  | 
6.12 | < 5.00 | FC1(F)CCN(Cc2cncc(-c3ccc4[nH]nc(-c5cc6c(N7CCCCC7)cccc6[nH]5)c4c3)c2)C1 [Compound 194, 5-(5-((3,3-Difluoropyrrolidin-1-yl)methyl)pyridin-3-yl)-3-(4-(piperidin-1-yl)-1H-indol-2-yl)-1H-indazole] | 29.2% | 

pEC50 [1] | pEC50 (IL-6) | SMILES | inhibition at 10 µM (IL-6) | inhibition at 10 µM ([1]; at 10 μM, given where EC50 >10 μM, read-out: percent inhibition at 10 μM)
6.32 | 5.74 | CN1CCN(c2cccc3[nH]c(-c4n[nH]c5ccc(-c6cncc(N)c6)cc45)cc23)CC1 [Compound 227, 5-(3-(4-(4-Methylpiperazin-1-yl)-1H-indol-2-yl)-1H-indazol-5-yl)pyridin-3-amine] |  | 
6.25 | 6.23 | CC(C)C(=O)Nc1cncc(-c2ccc3[nH]nc(-c4cc5c(N6CCN(C)CC6)cccc5[nH]4)c3c2)c1 [Compound 233, N-(5-(3-(4-(4-Methylpiperazin-1-yl)-1H-indol-2-yl)-1H-indazol-5-yl)pyridin-3-yl)isobutyramide] |  | 
5.30 | 5.94 | CN1CCN(c2cccc3[nH]c(-c4n[nH]c5ccc(-c6cncc(CN7CCCCC7)c6)cc45)cc23)CC1 [Compound 239, 3-(4-(4-Methylpiperazin-1-yl)-1H-indol-2-yl)-5-(5-(piperidin-1-ylmethyl)pyridin-3-yl)-1H-indazole] |  | 
5.90 | 6.73 | CN1CCN(c2cccc3[nH]c(-c4n[nH]c5ccc(-c6cncc(NC(=O)C7CCCC7)c6)cc45)cc23)CC1 [Compound 246, N-(5-(3-(4-(4-Methylpiperazin-1-yl)-1H-indol-2-yl)-1H-indazol-5-yl)pyridin-3-yl)cyclopentanecarboxamide] |  | 
5.85 | 6.82 | CN1CCN(c2cccc3[nH]c(-c4n[nH]c5ccc(-c6cncnc6)cc45)cc23)CC1 [Compound 251, 3-(4-(4-Methylpiperazin-1-yl)-1H-indol-2-yl)-5-(pyrimidin-5-yl)-1H-indazole] |  | 
6.80 | 6.63 | CCC(=O)Nc1cncc(-c2ccc3[nH]nc(-c4cc5ccccc5[nH]4)c3c2)c1 [Compound 253, N-(5-(3-(1H-Indol-2-yl)-1H-indazol-5-yl)pyridin-3-yl)propionamide] |  | 
7.74 | 8.00 | c1cncc(-c2ccc3[nH]nc(-c4cc5ccccc5[nH]4)c3c2)c1 [Compound 256, 3-(1H-Indol-2-yl)-5-(pyridin-3-yl)-1H-indazole] |  | 
6.38 | 6.79 | CCNCc1cncc(-c2ccc3[nH]nc(-c4cc5ccccc5[nH]4)c3c2)c1 [Compound 258, N-((5-(3-(1H-Indol-2-yl)-1H-indazol-5-yl)pyridin-3-yl)methyl)ethanamine] |  | 
5.81 | < 5.00 | O=C(Cc1ccccc1)Nc1cncc(-c2ccc3[nH]nc(-c4cc5ccccc5[nH]4)c3c2)c1 [Compound 262, N-(5-(3-(1H-Indol-2-yl)-1H-indazol-5-yl)pyridin-3-yl)-2-phenylacetamide] | 0% | 
6.42 | < 5.00 | O=C(Nc1cncc(-c2ccc3[nH]nc(-c4cc5ccccc5[nH]4)c3c2)c1)c1ccccc1 [Compound 263, N-(5-(3-(1H-Indol-2-yl)-1H-indazol-5-yl)pyridin-3-yl)benzamide] | 0% | 
6.44 | 6.63 | c1ccc2[nH]c(-c3n[nH]c4ccc(-c5cncc(CN6CCCC6)c5)cc34)cc2c1 [Compound 266, 3-(1H-Indol-2-yl)-5-(5-(pyrrolidin-1-ylmethyl)pyridin-3-yl)-1H-indazole] |  | 
6.17 | 5.76 | c1ccc2[nH]c(-c3n[nH]c4ccc(-c5cncc(CN6CCCCC6)c5)cc34)cc2c1 [Compound 267, 3-(1H-Indol-2-yl)-5-(5-(piperidin-1-ylmethyl)pyridin-3-yl)-1H-indazole] |  | 
6.73 | < 5.00 | CC(C)(C)CC(=O)Nc1cncc(-c2ccc3[nH]nc(-c4cc5ccccc5[nH]4)c3c2)c1 [Compound 268, N-(5-(3-(1H-Indol-2-yl)-1H-indazol-5-yl)pyridin-3-yl)-3,3-dimethylbutanamide] | 0% | 
6.16 | < 5.00 | O=C(Nc1cncc(-c2ccc3[nH]nc(-c4cc5ccccc5[nH]4)c3c2)c1)C1CCC1 [Compound 273, N-(5-(3-(1H-Indol-2-yl)-1H-indazol-5-yl)pyridin-3-yl) cyclobutanecarboxamide] | 44.3% | 
6.23 | < 5.00 | O=C(Nc1cncc(-c2ccc3[nH]nc(-c4cc5ccccc5[nH]4)c3c2)c1)C1CCCCC1 [Compound 275, N-(5-(3-(1H-Indol-2-yl)-1H-indazol-5-yl)pyridin-3-yl) cyclohexanecarboxamide] | 32.5% | 

From patent US10604512B2, “3-(1H-indol-2-yl)-1H-indazoles and therapeutic uses thereof” (Samumed, LLC, priority 2015, dated 2020)
